{
  "source": "patent US20040092588A1",
  "about": "“Antiseptic for wounds and mucous membranes” (priority 2001, published 2004)",
  "system": "human amnion cells (FL cells)",
  "assay": "neutral red uptake cytotoxicity test",
  "assay_type": "cell-based",
  "conditions": "24 h at 37° C.",
  "experimental": "In this test, adherent cultures of human amnion cells (FL cells) are incubated for 24 h at 37° C. with the desired concentration of the test substance in complete MEM culture medium with 5% FBS in a 5% CO2/air atmosphere. The culture medium and test substance are then removed, and new culture medium with neutral red is added. Since vital FL cells take up the dye neutral red in their lysosomes, the intensity of the eluted red coloration is correlated with the proportion of living cells. The intensity is automatically determined by the absorbance at a 540 nm test wavelength/655 nm reference wavelength. Information about the cytotoxic activity of the test substance can be obtained by comparison with a control group that was incubated with phosphate-buffered salt solution (PBS) instead of with the test substance. In addition, this model can be used to test and compare different formulations.\nIn the present test, different concentrations of octenidine dihydrochloride in PBS and Octenisept® (containing octenidine dihydrochloride and phenoxyethanol) were compared with each other and with PBS. The concentration values refer to the concentration of octenidine dihydrochloride.\nThe measured absorbances are plotted in FIGS. 1-2. Each measurement is based on 32 individual measurements. Inferential statistical analysis was performed by the U-test. […]",
  "data": [
    {"smiles": "CCCCCCCCN=c1ccn(CCCCCCCCCCn2ccc(=NCCCCCCCC)cc2)cc1.Cl.Cl", "note": "[octenidine dihydrochloride]", "values": [
      {"measurement": "cytotoxic activity relative to comparable concentrations in Octenisept", "value": "significantly lower"},
      {"measurement": "absorbance (neutral red, 540 nm/655 nm) relative to Octenisept", "setting": "all tested concentrations, U-test", "value": "significantly elevated"}
    ]}
  ]
}
